Measured values from US20250152516A1, “COMPRESSIBLE SODIUM CAPRATE FORMULATIONS” (AstraZeneca AB, priority 2022, published 2025).
Entries after “also recorded” stand apart in the source; their conditions may differ. Values belong to the compound of their own block, whether it stands above or below them. l = locked nucleic acid (LNA); [5mC] = 5-methylcytosine; d = 2'-deoxy (DNA)

Assays:
Format in all cases: physicochemical
[1] = Dissolution profile of tablets comprising Form A sodium caprate and a macromolecule; details: Example 12 Formulation 1 tablets; pH 6.8 phosphate buffer at 37° C.; FIGS. 20A-20B
Description: The dissolution profiles of tablets comprising Form A sodium caprate and an ASO, prepared according to Example 12, Formulation 1, are illustrated in FIG. 20A. […] (mimicking the small intestinal condition). This allows for maximum absorption enhancement. The dissolution profile of tablets comprising Form A sodium caprate and the MEDI7219 Peptide is illustrated in FIG. 20B. […] (mimicking the small intestinal condition).

[2] = Compaction properties (tabletability, tablet tensile strength, compaction simulator) of sodium caprate forms; details: tablets of each form; high pressure = above approximately 50 MPa
[3] = as above; details: tablets of each form; particle sizes about 37-53, 150-300, 600-710 μm; FIGS. 5A-5C
Description: The tabletability of different particle sizes and forms of sodium caprate was obtained by measuring the tensile strength of tablets compressed using a compaction simulator. FIGS. 5A-5C show the results of tabletability with laboratory-scale amounts of sodium caprate with particle sizes of about 37 to 53 μm, of about 150 to 300 μm, and of about 600 to 710 μm, respectively.
Tablets were produced with each of the sodium caprate forms, and compaction properties were assessed.

[4] = Karl Fischer titration, water content of sodium caprate forms; details: forms prepared as in Example 1
Description: In some embodiments, the water content of sodium caprate is determined by Karl Fischer titration. Karl Fischer titration uses coulometric or volumetric titration to determine trace amounts of water in a sample. Methods of performing Karl Fischer titration are known to the skilled artisan. In some embodiments, Form A or Form B sodium caprate has a lower water content compared with Form C or Form D water content. In some embodiments, the sodium caprate is Form A sodium caprate characterized by a water content by Karl Fischer titration below 2%, below 1.9%, below 1.8%, below 1.7%, below 1.6%, below 1.5%, or below 1.4%. In some embodiments, Form A sodium caprate has a water content of about 0.4% to about 1.7%. Form B sodium caprate has a water content ≤1%. Form C sodium caprate has a water content of about 2% to about 3%, and Form D sodium caprate has a water content of about 2.5% to about 4%. In some embodiments, the sodium caprate used for making the oral tablet has a water content of less than about 2% as measured by Karl Fischer titration. In some embodiments, the sodium caprate has a water content of less than about 1.5%. In some embodiments, the sodium caprate has a water content of about 1%, about 1.1%, about 1.2%, about 1.3%, about 1.4%, about 1.5%, about 1.6%, about 1.7%, about 1.8%, about 1.9%, or about 2.0%. […]

sticking tendency during tableting [2]: high sticking tendency
compaction properties / tabletability [3]: poor tabletability
Compound: CCCCCCCCCC(=O)[O-].[Na+] [Form B, sodium caprate]

sticking tendency during tableting [2]: high sticking tendency
Compound: CCCCCCCCCC(=O)[O-].[Na+] [Form D, sodium caprate]
compaction properties / tabletability [3]: poor tabletability; also recorded: worst tabletability

Second part, the compound before the results:

Compound: CCCCCCCCCC(=O)[O-].[Na+] [Form A, sodium caprate]
release (dissolution) from tablets [1]: rapid and concomitant release
sticking tendency during tableting [2]: no observable sticking at high pressure
compaction properties / tabletability [3]: best compaction properties

Compound: CCCCCCCCCC(=O)[O-].[Na+] [Form C, sodium caprate]
sticking tendency during tableting [2]: high sticking tendency
compaction properties / tabletability [3]: poor tabletability; also recorded: worst tabletability
Amount of Water (%) [4]: 2-3%

Compound: GM5CAttctaatagcAGM5C (antisense GCATTCTAATAGCAGC; sugars from the 5' end l3 d10 l3, [5mC] at 2, 16, backbone not given here) [MALAT1, antisense oligonucleotide targeting MALAT1, with LNA nucleosides and 5-methylcytidine, reference compound]
release (dissolution) from tablets [1]: rapid and concomitant release
